Reference: ChEMBL document CHEMBL4376815, “The Development Process for Discovery and Clinical Advancement of Modern Antimalarials” (J Med Chem, 2019)
Converted amounts (≈) assume the structure as drawn.

Experiments:
[1] = system: Plasmodium falciparum; assay: Antimalarial activity against Plasmodium falciparum asexual blood stage form infected in human assessed as parasite clearance half-life at 10 mg, po after 8 days; assay type: functional, organism-based
[2] = biological target: Voltage-gated inwardly rectifying potassium channel KCNH2 (Homo sapiens, UniProt Q12809); assay: Inhibition of human ERG by patch clamp method
Sequence of Voltage-gated inwardly rectifying potassium channel KCNH2 (Q12809 whole entry): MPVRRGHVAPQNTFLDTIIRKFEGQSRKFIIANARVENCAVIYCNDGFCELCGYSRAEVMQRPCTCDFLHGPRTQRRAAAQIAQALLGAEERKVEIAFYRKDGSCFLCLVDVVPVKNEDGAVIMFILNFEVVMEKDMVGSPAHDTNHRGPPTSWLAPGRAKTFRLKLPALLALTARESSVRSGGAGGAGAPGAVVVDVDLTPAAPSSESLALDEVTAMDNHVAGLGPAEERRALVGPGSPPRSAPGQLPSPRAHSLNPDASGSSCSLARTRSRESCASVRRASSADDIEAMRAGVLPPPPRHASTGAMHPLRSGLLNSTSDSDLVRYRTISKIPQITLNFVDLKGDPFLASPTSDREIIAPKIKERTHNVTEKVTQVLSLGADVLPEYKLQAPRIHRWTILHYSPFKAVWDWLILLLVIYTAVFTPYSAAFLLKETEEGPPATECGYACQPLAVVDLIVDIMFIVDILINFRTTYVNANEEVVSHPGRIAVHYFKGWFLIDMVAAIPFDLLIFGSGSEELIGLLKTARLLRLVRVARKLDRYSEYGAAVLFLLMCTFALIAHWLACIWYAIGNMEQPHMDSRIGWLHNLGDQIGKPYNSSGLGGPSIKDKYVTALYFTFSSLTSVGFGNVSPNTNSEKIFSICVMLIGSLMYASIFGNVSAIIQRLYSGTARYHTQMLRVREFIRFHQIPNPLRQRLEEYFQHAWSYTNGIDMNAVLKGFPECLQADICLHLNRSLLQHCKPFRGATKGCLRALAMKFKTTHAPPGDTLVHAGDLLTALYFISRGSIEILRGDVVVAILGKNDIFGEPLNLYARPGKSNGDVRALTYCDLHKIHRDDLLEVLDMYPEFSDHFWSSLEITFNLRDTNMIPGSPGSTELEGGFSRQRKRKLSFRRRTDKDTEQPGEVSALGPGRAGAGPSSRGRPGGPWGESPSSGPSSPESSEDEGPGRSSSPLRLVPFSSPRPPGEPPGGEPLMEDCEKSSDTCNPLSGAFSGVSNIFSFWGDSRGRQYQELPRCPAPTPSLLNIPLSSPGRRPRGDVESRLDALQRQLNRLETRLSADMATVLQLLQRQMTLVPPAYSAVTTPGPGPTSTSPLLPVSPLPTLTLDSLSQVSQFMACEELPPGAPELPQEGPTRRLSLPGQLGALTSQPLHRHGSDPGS

[3] = system: Plasmodium falciparum; assay: Antimalarial activity against mefloquine/chloroquine-resistant Plasmodium falciparum asexual blood stage forms; assay type: functional, organism-based
[4] = system: Plasmodium falciparum; assay: Antimalarial activity against mefloquine/chloroquine-resistant Plasmodium falciparum asexual blood stage forms assessed as parasite clearance time at 10 times EC50; assay type: functional
[5] = system: Plasmodium falciparum; assay: Antimalarial activity against mefloquine/chloroquine-resistant Plasmodium falciparum asexual blood stage forms assessed as parasite clearance time at 100 times EC50; assay type: functional
[6] = system: Plasmodium falciparum; assay: Antimalarial activity against Plasmodium falciparum NF54 liver stage form schizonts infected in human hepatocytes assessed as EEF diameter; assay type: functional, organism-based
[7] = system: Plasmodium cynomolgi; assay: Antimalarial activity against Plasmodium cynomolgi liver stage form infected in human hepatocytes; assay type: functional, organism-based
[8] = system: Plasmodium falciparum; assay: Antimalarial activity against Plasmodium falciparum 3D7 infected in qd administered po dosed NOD-scid IL-2Rgamma null mouse assessed as reduction in parasite growth after 3 day by flow cytometric analysis; assay type: functional
[9] = system: Plasmodium falciparum; assay: Antimalarial activity against Plasmodium falciparum 3D7 infected in bid administered po dosed NOD-scid IL-2Rgamma null mouse assessed as reduction in parasite growth after 3 day by flow cytometric analysis; assay type: functional
[10] = Half life in Beagle dog at 1 mg/kg, iv by LC-MS analysis; assay type: ADME, organism-based, Canis lupus familiaris; conditions: in vivo
[11] = Half life in monkey at 1 mg/kg, iv by LC-MS analysis; assay type: ADME, organism-based, Macaca mulatta; conditions: rhesus monkey, in vivo
[12] = Plasma clearance in Beagle dog at 1 mg/kg, iv by LC-MS analysis; assay type: ADME, organism-based, Canis lupus familiaris
[13] = Plasma clearance in monkey at 1 mg/kg, iv by LC-MS analysis; assay type: ADME, organism-based, Macaca mulatta; conditions: rhesus monkey
[14] = AUC in Beagle dog at 1 mg/kg, iv by LC-MS analysis; assay type: ADME, organism-based, Canis lupus familiaris; conditions: in vivo
[15] = AUC in monkey at 1 mg/kg, iv by LC-MS analysis; assay type: ADME, organism-based, Macaca mulatta; conditions: rhesus monkey, in vivo
[16] = Cmax in human at 25 to 1200 mg, po measured up to 480 hrs by HPLC-MS/MS analysis; assay type: ADME, organism-based; conditions: in vivo
[17] = Tmax in human at 25 to 1200 mg, po measured up to 480 hrs by HPLC-MS/MS analysis; assay type: ADME, organism-based; conditions: in vivo
[18] = Half life in human at 25 to 1200 mg, po measured up to 480 hrs by HPLC-MS/MS analysis; assay type: ADME, organism-based; conditions: in vivo
[19] = AUC (0 to infinity) in human at 25 to 1200 mg, po measured up to 480 hrs by HPLC-MS/MS analysis; assay type: ADME, organism-based; conditions: in vivo
[20] = system: Plasmodium falciparum; assay: Antimalarial activity against Plasmodium falciparum asexual blood stage form infected in human assessed as parasite clearance half-life at 150 mg, po after 8 days; assay type: functional, organism-based
[21] = system: Plasmodium falciparum; assay: Antimalarial activity against Plasmodium falciparum asexual blood stage form infected in human assessed as reduction in parasite growth after 10 to 22 days; assay type: functional
[22] = system: Plasmodium falciparum; assay: Antimalarial activity against Plasmodium falciparum asexual blood stage form infected in human assessed as reduction in parasite growth at 400 mg, po after 72 hrs by blood smear based assay relative to control; assay type: functional; design: scale not given: the % may be the effect or the level left
[23] = system: Plasmodium falciparum; assay: Antimalarial activity against Plasmodium falciparum asexual blood stage form infected in human assessed as reduction in parasite growth at 400 mg, po measured on day 14 by blood smear based assay relative to control; assay type: functional; design: scale not given: the % may be the effect or the level left
[24] = system: Plasmodium falciparum; assay: Antimalarial activity against Plasmodium falciparum asexual blood stage form infected in human assessed as reduction in parasite growth at 400 mg, po measured on day 14 by qPCR analysis relative to control; assay type: functional; design: scale not given: the % may be the effect or the level left
[25] = system: Plasmodium falciparum; assay: Antimalarial activity against Plasmodium falciparum asexual blood stage form infected in human assessed as reduction in parasite growth at 250 mg, po measured on day 14 by blood smear based assay relative to control; assay type: functional; design: scale not given: the % may be the effect or the level left
[26] = system: Plasmodium falciparum; assay: Antimalarial activity against Plasmodium falciparum asexual blood stage form infected in human assessed as parasite clearance half-life; assay type: functional, organism-based
[27] = system: Plasmodium falciparum; assay: Antimalarial activity against schizont stage of Plasmodium falciparum clinical isolate; assay type: functional, organism-based
[28] = system: Plasmodium vivax; assay: Antimalarial activity against schizont stage of Plasmodium vivax clinical isolate; assay type: functional, organism-based
[29] = system: Plasmodium vivax; assay: Antimalarial activity against Plasmodium vivax infected in human erythrocytes assessed as reduction in [3H]-hypoxanthine incorporation incubated for 40 hrs followed by addition of [3H]-hypoxanthine and measured after 4 hrs by liquid scintillation counting method; assay type: functional, organism-based
[30] = Inhibition of Plasmodium vivax DHODH expressed in Escherichia coli using L-dihydroorotate as substrate
[31] = system: Plasmodium falciparum; assay: Antimalarial activity against Plasmodium falciparum 3D7; assay type: functional, organism-based
[32] = Drug level in human Plasma treated with [14C]-KAE609 assessed metabolite formation; assay type: ADME, cell-free
[33] = Half life in human; assay type: ADME
[34] = Drug recovery in feces of po dosed human by LC-MS/MS analysis; assay type: ADME, organism-based; conditions: faeces, read-out: Drug recovery
[35] = biological target: T1, Dihydroorotate dehydrogenase (Plasmodium falciparum, UniProt Q54A96); assay: Inhibition of Plasmodium falciparum DHODH expressed in Escherichia coli using L-dihydroorotate as substrate
T1 sequence (Q54A96 whole entry): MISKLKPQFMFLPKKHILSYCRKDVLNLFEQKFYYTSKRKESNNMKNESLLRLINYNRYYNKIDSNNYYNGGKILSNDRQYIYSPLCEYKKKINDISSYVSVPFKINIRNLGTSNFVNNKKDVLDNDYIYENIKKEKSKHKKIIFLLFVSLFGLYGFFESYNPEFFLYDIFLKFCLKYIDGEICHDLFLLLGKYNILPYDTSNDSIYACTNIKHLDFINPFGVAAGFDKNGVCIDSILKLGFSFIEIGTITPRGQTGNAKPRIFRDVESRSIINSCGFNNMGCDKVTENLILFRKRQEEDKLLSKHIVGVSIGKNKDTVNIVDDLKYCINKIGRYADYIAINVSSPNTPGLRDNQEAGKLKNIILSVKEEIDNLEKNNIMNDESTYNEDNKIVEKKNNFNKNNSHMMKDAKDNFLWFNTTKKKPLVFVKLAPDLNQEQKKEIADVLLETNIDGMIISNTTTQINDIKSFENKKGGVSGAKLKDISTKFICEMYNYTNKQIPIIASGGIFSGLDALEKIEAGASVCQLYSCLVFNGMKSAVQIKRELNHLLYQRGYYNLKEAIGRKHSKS

[36] = biological target: Dihydroorotate dehydrogenase (quinone), mitochondrial (Homo sapiens, UniProt Q02127); assay: Inhibition of human DHODH expressed in Escherichia coli using L-dihydroorotate as substrate
Sequence of Dihydroorotate dehydrogenase (quinone), mitochondrial (Q02127 whole entry): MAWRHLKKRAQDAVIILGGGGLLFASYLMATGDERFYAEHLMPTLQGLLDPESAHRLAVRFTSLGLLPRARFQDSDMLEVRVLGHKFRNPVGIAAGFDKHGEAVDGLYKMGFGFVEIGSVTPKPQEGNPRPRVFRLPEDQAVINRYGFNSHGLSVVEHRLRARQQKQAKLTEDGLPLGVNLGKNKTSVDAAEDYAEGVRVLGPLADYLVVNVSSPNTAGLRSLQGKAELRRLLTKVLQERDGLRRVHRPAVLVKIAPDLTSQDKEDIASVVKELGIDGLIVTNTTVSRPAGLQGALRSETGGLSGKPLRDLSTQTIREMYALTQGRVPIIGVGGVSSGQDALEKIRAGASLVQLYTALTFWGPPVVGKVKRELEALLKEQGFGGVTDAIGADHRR

[37] = system: Plasmodium falciparum; assay: Antimalarial activity against Plasmodium falciparum; assay type: functional, organism-based
[38] = Plasmodium falciparum, 3D7, po, 72 h

SMILES: O[C@@H](c1cc(C(F)(F)F)nc2c(C(F)(F)F)cccc12)[C@H]1CCCCN1
- T1/2 [1]: 6.2 h

SMILES: Cc1cc(Nc2ccc(S(F)(F)(F)(F)F)cc2)n2nc(C(C)(F)F)nc2n1 [DSM-265]
- IC50 [2]: 1590 to 6980 nM
- EC50 [3]: 7 to 16 nM
- Time [4]: 85 h
- Time [5]: 82 h
- EC50 [6]: 0.0057 µg/mL (≈ 0.0137 µM)
- EC50 [7]: 0.13 µg/mL (≈ 0.313 µM)
- MIC [8]: 13 mg/kg
- ED90 [8, 38]: 3 mg/kg
- MIC [9]: 6.4 mg/kg
- ED90 [9, 38]: 1.5 mg/kg
- half-life [10]: 10 to 45 h
- half-life [11]: 10 to 45 h
- clearance [12]: 0.367 to 0.9 mL/min/kg
- clearance [13]: 0.367 to 0.9 mL/min/kg
- AUC [14]: 16.7 to 46.9 µg·h/mL
- AUC [15]: 16.7 to 46.9 µg·h/mL
- Cmax [16]: 1310 to 34800 ng/mL
- Tmax [17]: 1.5 to 4 h
- half-life [18]: 86 to 118 h
- AUC(0-inf) [19]: 107 to 4720 µg·h/mL
- T1/2 [20]: 9.4 h
- MIC [21]: 1.04 µg/mL (≈ 2.5 µM)
- Activity [22]: 100%
- Activity [23]: 100%
- Activity [24]: 100%
- Activity [25]: 88%
- T1/2 [26]: 5 h
- EC50 [27]: 918 nM
- EC50 [28]: 190 nM
- EC50 [29]: 529 nM
- EC50 [30]: 20 nM

SMILES: CC(F)(F)c1nc2nc(CO)cc(Nc3ccc(S(F)(F)(F)(F)F)cc3)n2n1
- Tmax [17]: 95 to 143 h
- half-life [18]: 98 to 164 h
- AUC(0-inf) [19]: 167 to 1170 µg·h/mL
- EC50 [31]: 1800 nM

SMILES: C[C@H]1Cc2c([nH]c3cc(Cl)c(F)cc23)-c2c3cc(Cl)c(O)cc3nc(=O)n21
- Drug uptake [32]: 12%
- half-life [33]: 25 h
- dose excreted [34]: 36%

SMILES: Cc1cc(Nc2ccc(S(F)(F)(F)(F)F)c(F)c2)n2nc(C(C)(F)F)nc2n1
- IC50 [35]: 10 nM
- IC50 [36]: 3700 nM
- EC50 [37]: 2 nM
